Laboratory results published in publication PMC6154583, “Optimized 4,5-Diarylimidazoles as Potent/Selective Inhibitors of Protein Kinase CK1δ and Their Structural Relation to p38α MAPK” (Molecules : A Journal of Synthetic Chemistry and Natural …, 2017).

Columns and labels:
CDK2/CycA2 = CDK2/CycA2 (Homo sapiens, UniProt P24941); assay: ProQinase 33PanQinase selectivity profiling; format: biochemical; settings: 100 nM, relative to control, read-out: Residual activity (%)
DYRK1B = DYRK1B (Homo sapiens, UniProt Q9Y463); assay: ProQinase 33PanQinase selectivity profiling; format: biochemical; settings: 100 nM, relative to control, read-out: Residual activity (%)
ABL1 = ABL1 (Homo sapiens, UniProt P00519); assay: ProQinase 33PanQinase selectivity profiling; format: biochemical; settings: 100 nM, relative to control, read-out: Residual activity (%)
CDC42BPA = target: T1, CDC42BPA (Homo sapiens, UniProt Q5VT25); assay: ProQinase 33PanQinase selectivity profiling; format: biochemical; settings: 100 nM, relative to control, read-out: Residual activity (%)
T1 construct: purchased ProQinase GmbH

CDK4/CycD1 = CDK4/CycD1 (Homo sapiens, UniProt P11802); assay: ProQinase 33PanQinase selectivity profiling; format: biochemical; settings: 100 nM, relative to control, read-out: Residual activity (%)
CK1-gamma3 = CK1-gamma3 (Homo sapiens, UniProt Q9Y6M4); assay: ProQinase 33PanQinase selectivity profiling; format: biochemical; settings: 100 nM, relative to control
CK1-gamma3, sequence (Q9Y6M4 whole entry): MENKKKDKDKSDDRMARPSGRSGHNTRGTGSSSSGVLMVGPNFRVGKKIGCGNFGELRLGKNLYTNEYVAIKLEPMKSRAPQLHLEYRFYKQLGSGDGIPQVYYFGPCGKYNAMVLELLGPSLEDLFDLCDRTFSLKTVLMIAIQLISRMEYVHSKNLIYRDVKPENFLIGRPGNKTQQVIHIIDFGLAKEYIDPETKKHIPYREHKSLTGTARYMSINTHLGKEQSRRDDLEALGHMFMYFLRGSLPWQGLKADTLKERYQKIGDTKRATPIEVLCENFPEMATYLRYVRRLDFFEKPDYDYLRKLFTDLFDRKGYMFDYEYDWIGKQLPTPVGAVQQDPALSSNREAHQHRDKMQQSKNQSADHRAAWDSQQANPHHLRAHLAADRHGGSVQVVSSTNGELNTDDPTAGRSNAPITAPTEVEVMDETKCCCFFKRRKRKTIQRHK

ACV-RL1 = target: T2, ACV-RL1 (Homo sapiens, UniProt P37023); assay: ProQinase 33PanQinase selectivity profiling; format: biochemical; settings: 100 nM, relative to control, read-out: Residual activity (%)
T2 construct: purchased ProQinase GmbH (Freiburg, Germany)
T2 sequence (P37023 22-503): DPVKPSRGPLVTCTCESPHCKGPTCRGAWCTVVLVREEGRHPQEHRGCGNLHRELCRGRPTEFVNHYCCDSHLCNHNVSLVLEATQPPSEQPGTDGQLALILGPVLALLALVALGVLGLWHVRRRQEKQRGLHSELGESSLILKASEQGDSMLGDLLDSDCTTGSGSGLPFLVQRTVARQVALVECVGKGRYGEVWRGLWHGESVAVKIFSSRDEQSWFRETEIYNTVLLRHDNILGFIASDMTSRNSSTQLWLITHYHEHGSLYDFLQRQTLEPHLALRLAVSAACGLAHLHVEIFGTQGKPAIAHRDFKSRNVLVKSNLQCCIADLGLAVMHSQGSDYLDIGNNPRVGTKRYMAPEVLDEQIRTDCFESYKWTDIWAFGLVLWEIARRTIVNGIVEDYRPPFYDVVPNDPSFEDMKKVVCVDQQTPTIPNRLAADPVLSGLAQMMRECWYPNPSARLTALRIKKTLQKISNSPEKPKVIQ

DDR2 = DDR2 (Homo sapiens, UniProt Q16832); assay: ProQinase 33PanQinase selectivity profiling; format: biochemical; settings: 100 nM, relative to control, read-out: Residual activity (%)
CK2-alpha1 = CK2-alpha1 (Homo sapiens, UniProt P68400); assay: ProQinase 33PanQinase selectivity profiling; format: biochemical; settings: 100 nM, relative to control, read-out: Residual activity (%)
CDK7/CycH/MAT1 = CDK7/CycH/MAT1 (Homo sapiens, UniProt P50613); assay: ProQinase 33PanQinase selectivity profiling; format: biochemical; settings: 100 nM, relative to control, read-out: Residual activity (%)
CDK4/CycD3 = CDK4/CycD3 (Homo sapiens, UniProt P11802); assay: ProQinase 33PanQinase selectivity profiling; format: biochemical; settings: 100 nM, relative to control, read-out: Residual activity (%)
CDC7/ASK = target: T3, CDC7/ASK (Homo sapiens, UniProt O00311); assay: ProQinase 33PanQinase selectivity profiling; format: biochemical; settings: 100 nM, relative to control, read-out: Residual activity (%)
T3 construct: purchased ProQinase GmbH

EPHA1 = EPHA1 (Homo sapiens, UniProt P21709); assay: ProQinase 33PanQinase selectivity profiling; format: biochemical; settings: 100 nM, relative to control, read-out: Residual activity (%)
CLK3 = target: T4, CLK3 (Homo sapiens, UniProt P49761); assay: ProQinase 33PanQinase selectivity profiling; format: biochemical; settings: 100 nM, relative to control, read-out: Residual activity (%)
T4 construct: purchased ProQinase GmbH

CAMK2B = CAMK2B (Homo sapiens, UniProt Q13554); assay: ProQinase 33PanQinase selectivity profiling; format: biochemical; settings: 100 nM, relative to control, read-out: Residual activity (%)
DYRK1A = DYRK1A (Homo sapiens, UniProt Q13627); assay: ProQinase 33PanQinase selectivity profiling; format: biochemical; settings: 100 nM, relative to control, read-out: Residual activity (%)
ALK (GST-HIS-tag) = target: T5, ALK (GST-HIS-tag) (Homo sapiens, UniProt Q9UM73); assay: ProQinase 33PanQinase selectivity profiling; format: biochemical; settings: 100 nM, relative to control, read-out: Residual activity (%)
T5 construct: GST; HIS; purchased ProQinase GmbH (Freiburg, Germany)
T5 sequence (Q9UM73 19-1620): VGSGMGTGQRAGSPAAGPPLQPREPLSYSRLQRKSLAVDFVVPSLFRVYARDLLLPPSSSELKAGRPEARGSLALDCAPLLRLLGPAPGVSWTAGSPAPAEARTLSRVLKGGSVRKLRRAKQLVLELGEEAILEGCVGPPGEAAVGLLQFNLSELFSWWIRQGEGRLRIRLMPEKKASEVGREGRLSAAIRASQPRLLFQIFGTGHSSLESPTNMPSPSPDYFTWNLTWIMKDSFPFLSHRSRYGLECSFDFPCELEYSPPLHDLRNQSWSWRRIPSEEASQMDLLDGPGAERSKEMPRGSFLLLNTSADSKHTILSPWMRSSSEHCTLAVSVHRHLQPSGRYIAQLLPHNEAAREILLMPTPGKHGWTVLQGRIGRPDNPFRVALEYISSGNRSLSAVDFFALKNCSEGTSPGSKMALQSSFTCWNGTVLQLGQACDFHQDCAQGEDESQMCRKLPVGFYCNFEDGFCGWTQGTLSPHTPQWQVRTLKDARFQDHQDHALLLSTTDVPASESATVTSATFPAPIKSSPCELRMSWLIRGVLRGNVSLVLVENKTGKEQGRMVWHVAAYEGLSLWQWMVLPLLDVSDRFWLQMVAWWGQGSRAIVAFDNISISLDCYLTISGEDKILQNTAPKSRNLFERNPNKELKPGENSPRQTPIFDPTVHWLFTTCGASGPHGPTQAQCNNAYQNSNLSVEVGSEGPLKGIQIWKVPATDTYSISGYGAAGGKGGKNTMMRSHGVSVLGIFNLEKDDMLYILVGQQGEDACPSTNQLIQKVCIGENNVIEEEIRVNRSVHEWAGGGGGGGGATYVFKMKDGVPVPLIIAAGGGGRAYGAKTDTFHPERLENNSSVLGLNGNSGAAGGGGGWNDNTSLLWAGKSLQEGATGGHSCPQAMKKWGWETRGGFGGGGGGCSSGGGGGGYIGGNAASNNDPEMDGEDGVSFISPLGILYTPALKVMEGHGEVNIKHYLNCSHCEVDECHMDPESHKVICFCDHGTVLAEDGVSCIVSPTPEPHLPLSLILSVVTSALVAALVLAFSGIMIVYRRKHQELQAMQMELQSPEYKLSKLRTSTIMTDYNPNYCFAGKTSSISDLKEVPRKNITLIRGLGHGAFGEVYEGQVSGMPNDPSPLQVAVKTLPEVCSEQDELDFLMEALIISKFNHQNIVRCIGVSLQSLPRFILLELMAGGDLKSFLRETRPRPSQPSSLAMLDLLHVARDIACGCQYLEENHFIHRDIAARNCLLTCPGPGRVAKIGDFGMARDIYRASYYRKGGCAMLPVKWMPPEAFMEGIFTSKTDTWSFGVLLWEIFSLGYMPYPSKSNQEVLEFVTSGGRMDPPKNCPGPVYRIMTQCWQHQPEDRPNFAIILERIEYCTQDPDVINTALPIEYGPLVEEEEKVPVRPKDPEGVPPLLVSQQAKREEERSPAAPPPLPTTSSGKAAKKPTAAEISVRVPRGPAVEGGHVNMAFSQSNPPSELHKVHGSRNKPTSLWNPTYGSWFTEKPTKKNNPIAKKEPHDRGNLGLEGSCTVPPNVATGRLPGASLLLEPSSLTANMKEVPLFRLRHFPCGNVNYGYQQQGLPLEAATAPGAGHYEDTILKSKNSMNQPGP

CAMK4 = CAMK4 (Homo sapiens, UniProt Q16566); assay: ProQinase 33PanQinase selectivity profiling; format: biochemical; settings: 100 nM, relative to control, read-out: Residual activity (%)
AXL = target: T6, AXL (Homo sapiens, UniProt P30530); assay: ProQinase 33PanQinase selectivity profiling; format: biochemical; settings: 100 nM, relative to control, read-out: Residual activity (%)
T6 construct: purchased ProQinase GmbH (Freiburg, Germany)

CK1-epsilon = CK1-epsilon (Homo sapiens, UniProt P49674); assay: ProQinase 33PanQinase selectivity profiling; format: biochemical; settings: 100 nM, relative to control, read-out: Residual activity (%)
CAMKK2 = CAMKK2 (Homo sapiens, UniProt Q96RR4); assay: ProQinase 33PanQinase selectivity profiling; format: biochemical; settings: 100 nM, relative to control, read-out: Residual activity (%)
ABL2 = ABL2 (Homo sapiens, UniProt P42684); assay: ProQinase 33PanQinase selectivity profiling; format: biochemical; settings: 100 nM, relative to control, read-out: Residual activity (%)
CK1-delta = CK1-delta (Homo sapiens, UniProt P48730); assay: ProQinase 33PanQinase selectivity profiling; format: biochemical; settings: 100 nM, relative to control, read-out: Residual activity (%)
DAPK2 = DAPK2 (Homo sapiens, UniProt Q9UIK4); assay: ProQinase 33PanQinase selectivity profiling; format: biochemical; settings: 100 nM, relative to control, read-out: Residual activity (%)
CDK1/CycE1 = CDK1/CycE1 (Homo sapiens, UniProt P06493); assay: ProQinase 33PanQinase selectivity profiling; format: biochemical; settings: 100 nM, relative to control, read-out: Residual activity (%)
CDK1/CycE1, sequence (P06493 whole entry): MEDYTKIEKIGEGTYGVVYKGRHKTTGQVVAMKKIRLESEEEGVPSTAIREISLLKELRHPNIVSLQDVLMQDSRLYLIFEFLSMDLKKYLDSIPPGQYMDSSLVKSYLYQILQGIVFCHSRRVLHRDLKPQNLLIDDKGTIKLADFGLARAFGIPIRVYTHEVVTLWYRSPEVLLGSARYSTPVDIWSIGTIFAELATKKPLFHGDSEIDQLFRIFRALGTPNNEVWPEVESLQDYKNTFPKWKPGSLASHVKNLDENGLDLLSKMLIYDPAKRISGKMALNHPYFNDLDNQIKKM
CDK1/CycE1, sequence (P24864 whole entry partner): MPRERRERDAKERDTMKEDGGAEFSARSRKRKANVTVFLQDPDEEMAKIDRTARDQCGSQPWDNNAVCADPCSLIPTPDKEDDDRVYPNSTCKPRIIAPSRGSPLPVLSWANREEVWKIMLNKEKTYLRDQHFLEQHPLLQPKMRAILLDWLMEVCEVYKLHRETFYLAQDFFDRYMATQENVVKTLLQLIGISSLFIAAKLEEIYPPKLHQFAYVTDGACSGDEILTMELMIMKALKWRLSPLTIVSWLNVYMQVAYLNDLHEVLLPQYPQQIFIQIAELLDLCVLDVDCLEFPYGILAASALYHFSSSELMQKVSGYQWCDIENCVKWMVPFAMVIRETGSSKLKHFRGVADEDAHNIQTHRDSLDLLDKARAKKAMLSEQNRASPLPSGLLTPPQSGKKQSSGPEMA

Colo357 cells = assay: MTT viability assay; format: cell-based, human; settings: Homo sapiens, COLO357, 48 h incubation, mean ± SD, n = 3
Protocol: (§1) The human pancreatic cancer cell lines Colo357 [61], Panc-1 [62], and MiaPaCa-2 [63] were grown in Dulbecco’s modified Eagle’s medium (DMEM). Panc89 [64] was grown in DMEM:RPMI-1640 medium in ratio 1:1. The human colon adenocarcinoma cell line HT-29 [65] was grown in McCoy’s 5A medium. All media were supplemented with 10% fetal calf serum (FCS), 100 units·mL^−1 penicillin, 100 µg∙mL^−1 streptomycin and 2 mM glutamine. All cells were grown at 37 °C in a humidified 5% carbon dioxide atmosphere.
(§2) In order to determine the cytotoxic effects of investigated inhibitors conventional MTT assay were used. 1 × 10^4 cells∙well^−1 were seeded in 96-well cell culture plates and cultivated for 24 h. Cell lines were exposed to increasing concentrations of the indicated inhibitor compounds, with untreated and DMSO-treated cells serving as control. After an incubation period of 48 h 10 µL of MTT solution (5 mg∙mL^−1 in PBS) were added and cells were incubated for 4 h. MTT-containing medium was carefully removed and 100 µL acidic isopropanol (0.04 N HCl in isopropanol) per well were added. For dissolution of formazan crystals plates were shaken for 30 min on an orbital shaker in the dark. Finally, dissolved crystals were measured spectrophotometrically at […]. All experiments were performed in triplicate with four technical replicates per assay. Results were normalized considering the mean optical density value of control wells as 100%. GraphPad Prism 6 (La Jolla, CA, USA) software was used to calculate EC50 values.

Panc89 cells = assay: MTT viability assay; format: cell-based, human; settings: Homo sapiens, 48 h incubation, mean ± SD, n = 3
Protocol: as §1, §2

AKT2 aa107-481 = target: T7, AKT2 aa107-481 (Homo sapiens, UniProt P31751); assay: ProQinase 33PanQinase selectivity profiling; format: biochemical; settings: 100 nM, relative to control, read-out: Residual activity (%)
T7 construct: AKT2 aa107-481; purchased ProQinase GmbH (Freiburg, Germany)

BMX = target: T8, BMX (Homo sapiens, UniProt P51813); assay: ProQinase 33PanQinase selectivity profiling; format: biochemical; settings: 100 nM, relative to control, read-out: Residual activity (%)
T8 construct: purchased ProQinase GmbH

ACK1 = target: T9, ACK1 (Homo sapiens, UniProt Q07912); assay: ProQinase 33PanQinase selectivity profiling; format: biochemical; settings: 100 nM, relative to control, read-out: Residual activity (%)
T9 construct: purchased ProQinase GmbH (Freiburg, Germany)

EPHA5 = EPHA5 (Homo sapiens, UniProt P54756); assay: ProQinase 33PanQinase selectivity profiling; format: biochemical; settings: 100 nM, relative to control, read-out: Residual activity (%)
EPHA5, sequence (P54756 25-1037): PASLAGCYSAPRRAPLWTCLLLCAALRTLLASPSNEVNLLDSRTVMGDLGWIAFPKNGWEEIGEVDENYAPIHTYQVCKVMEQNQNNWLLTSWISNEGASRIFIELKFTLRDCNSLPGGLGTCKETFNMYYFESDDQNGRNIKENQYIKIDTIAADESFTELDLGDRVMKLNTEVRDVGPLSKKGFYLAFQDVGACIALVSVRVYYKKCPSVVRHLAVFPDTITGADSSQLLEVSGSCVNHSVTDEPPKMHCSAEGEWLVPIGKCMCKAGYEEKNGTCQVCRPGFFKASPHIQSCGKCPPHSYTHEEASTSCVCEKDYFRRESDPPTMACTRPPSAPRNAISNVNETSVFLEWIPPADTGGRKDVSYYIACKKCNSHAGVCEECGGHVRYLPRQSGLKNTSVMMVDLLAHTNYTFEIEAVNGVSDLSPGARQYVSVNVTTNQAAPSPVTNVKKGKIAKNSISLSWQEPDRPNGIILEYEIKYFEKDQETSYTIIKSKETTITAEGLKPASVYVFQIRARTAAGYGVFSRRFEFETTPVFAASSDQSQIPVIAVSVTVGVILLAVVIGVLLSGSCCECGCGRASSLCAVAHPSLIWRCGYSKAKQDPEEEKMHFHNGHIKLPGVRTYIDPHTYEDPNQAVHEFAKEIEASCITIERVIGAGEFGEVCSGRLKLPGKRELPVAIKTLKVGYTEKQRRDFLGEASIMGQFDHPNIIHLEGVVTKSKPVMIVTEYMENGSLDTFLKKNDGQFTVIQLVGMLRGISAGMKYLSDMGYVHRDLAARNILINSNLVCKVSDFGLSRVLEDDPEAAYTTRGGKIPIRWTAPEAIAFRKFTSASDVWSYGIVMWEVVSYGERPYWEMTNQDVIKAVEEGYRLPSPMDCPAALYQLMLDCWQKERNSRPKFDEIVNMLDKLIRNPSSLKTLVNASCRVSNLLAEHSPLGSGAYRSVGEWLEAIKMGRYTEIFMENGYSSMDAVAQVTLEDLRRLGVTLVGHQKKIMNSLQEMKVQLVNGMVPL

BRSK2 = BRSK2 (Homo sapiens, UniProt Q8IWQ3); assay: ProQinase 33PanQinase selectivity profiling; format: biochemical; settings: 100 nM, relative to control, read-out: Residual activity (%)
BRSK2, sequence (Q8IWQ3 whole entry): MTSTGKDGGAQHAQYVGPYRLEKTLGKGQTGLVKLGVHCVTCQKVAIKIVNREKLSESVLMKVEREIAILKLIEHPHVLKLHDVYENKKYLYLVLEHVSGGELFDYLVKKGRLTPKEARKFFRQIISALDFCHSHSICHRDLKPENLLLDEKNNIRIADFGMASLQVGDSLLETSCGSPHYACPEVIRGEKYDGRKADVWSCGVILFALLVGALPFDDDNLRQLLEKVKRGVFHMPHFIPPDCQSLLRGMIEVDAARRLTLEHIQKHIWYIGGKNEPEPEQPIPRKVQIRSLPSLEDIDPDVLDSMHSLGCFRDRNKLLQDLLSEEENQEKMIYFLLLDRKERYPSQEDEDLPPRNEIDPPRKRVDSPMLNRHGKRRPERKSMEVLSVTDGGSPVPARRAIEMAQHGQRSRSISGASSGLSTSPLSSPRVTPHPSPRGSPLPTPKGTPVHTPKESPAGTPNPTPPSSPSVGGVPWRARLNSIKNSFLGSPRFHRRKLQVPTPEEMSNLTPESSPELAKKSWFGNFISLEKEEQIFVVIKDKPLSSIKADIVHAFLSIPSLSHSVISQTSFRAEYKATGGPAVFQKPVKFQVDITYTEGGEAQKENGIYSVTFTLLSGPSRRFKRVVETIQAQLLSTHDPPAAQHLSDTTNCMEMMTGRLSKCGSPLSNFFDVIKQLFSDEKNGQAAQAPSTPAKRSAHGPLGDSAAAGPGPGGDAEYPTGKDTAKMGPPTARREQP

BTK = BTK (Homo sapiens, UniProt Q06187); assay: ProQinase 33PanQinase selectivity profiling; format: biochemical; settings: 100 nM, relative to control, read-out: Residual activity (%)

With COc1ccc(OC)c(CCC(=O)Nc2cc(-c3nc(SC)[nH]c3-c3ccc(F)cc3)ccn2)c1 [11b, 3-(2,5-Dimethoxyphenyl)-N-(4-(5-(4-fluorophenyl)-2-(methylthio)-1H-imidazol-4-yl)-pyridin-2-yl)-propanamide] as the compound, how does the remaining activity at 0.1 µM (CDK2/CycA2) read?
Its remaining activity at 0.1 µM is 87%.

And the remaining activity at 0.1 µM (DYRK1B)?
Its remaining activity at 0.1 µM is 101%.

What about the remaining activity at 0.1 µM (ABL1) of the same compound?
Its remaining activity at 0.1 µM is 100%.

What about the remaining activity at 0.1 µM (CDC42BPA) of the same compound?
The remaining activity at 0.1 µM was 104%.

What about the remaining activity at 0.1 µM (CDK4/CycD1) of the same compound?
Its remaining activity at 0.1 µM is 98%.

And the “Residual activity (%)” value (CK1-gamma3)?
Its value is “unaffected”.

What about the remaining activity at 0.1 µM (CK1-gamma3; read-out: Residual activity (%)) of the same compound?
Its remaining activity at 0.1 µM is 73%.

And the remaining activity at 0.1 µM (ACV-RL1)?
Its remaining activity at 0.1 µM is 99%.

What about the remaining activity at 0.1 µM (DDR2) of the same compound?
The remaining activity at 0.1 µM was 101%.

And the remaining activity at 0.1 µM (CK2-alpha1)?
Its remaining activity at 0.1 µM is 97%.

And the remaining activity at 0.1 µM (CDK7/CycH/MAT1)?
Its remaining activity at 0.1 µM is 102%.

What about the remaining activity at 0.1 µM (CDK4/CycD3) of the same compound?
Its remaining activity at 0.1 µM is 88%.

What about the remaining activity at 0.1 µM (CDC7/ASK) of the same compound?
Its remaining activity at 0.1 µM is 97%.

And the remaining activity at 0.1 µM (EPHA1)?
Its remaining activity at 0.1 µM is 104%.

And the remaining activity at 0.1 µM (CLK3)?
Its remaining activity at 0.1 µM is 98%.

What about the remaining activity at 0.1 µM (CAMK2B) of the same compound?
Its remaining activity at 0.1 µM is 103%.

What about the remaining activity at 0.1 µM (DYRK1A) of the same compound?
Its remaining activity at 0.1 µM is 96%.

What about the remaining activity at 0.1 µM (ALK (GST-HIS-tag)) of the same compound?
The remaining activity at 0.1 µM was 114%.

What about the remaining activity at 0.1 µM (CAMK4) of the same compound?
The remaining activity at 0.1 µM was 95%.

And the remaining activity at 0.1 µM (AXL)?
Its remaining activity at 0.1 µM is 104%.

What about the remaining activity at 0.1 µM (CK1-epsilon) of the same compound?
Its remaining activity at 0.1 µM is 7%.

What about the remaining activity at 0.1 µM (CAMKK2) of the same compound?
The remaining activity at 0.1 µM was 96%.

What about the remaining activity at 0.1 µM (ABL2) of the same compound?
Its remaining activity at 0.1 µM is 91%.

And the remaining activity at 0.1 µM (CK1-delta)?
The remaining activity at 0.1 µM was 3%.

What about the remaining activity at 0.1 µM (DAPK2) of the same compound?
Its remaining activity at 0.1 µM is 95%.

And the remaining activity at 0.1 µM (CDK1/CycE1)?
The remaining activity at 0.1 µM was 97%.

What about the EC50 (Colo357 cells) of the same compound?
Its EC50 is 3.5 ± 0.3 µM.

What about the EC50 (Panc89 cells) of the same compound?
The EC50 was 1.5 ± 0.4 µM.

What about the remaining activity at 0.1 µM (AKT2 aa107-481) of the same compound?
The remaining activity at 0.1 µM was 97%.

And the remaining activity at 0.1 µM (BMX)?
Its remaining activity at 0.1 µM is 98%.

What about the remaining activity at 0.1 µM (ACK1) of the same compound?
Its remaining activity at 0.1 µM is 96%.

What about the remaining activity at 0.1 µM (EPHA5) of the same compound?
The remaining activity at 0.1 µM was 97%.

What about the remaining activity at 0.1 µM (BRSK2) of the same compound?
The remaining activity at 0.1 µM was 105%.

And the remaining activity at 0.1 µM (BTK)?
Its remaining activity at 0.1 µM is 105%.
